Drawing on patent US20230113037A1 (Bayer Aktiengesellschaft, priority 2019, published 2023), this text covers IC50 for 21 molecules.

The term IC50 denotes the concentration needed to halve the response being measured.

The target in assay [1] is T1, AHR (Mus musculus, UniProt P30561).
T1 sequence (P30561 1-848 P471L/N533S/M589L): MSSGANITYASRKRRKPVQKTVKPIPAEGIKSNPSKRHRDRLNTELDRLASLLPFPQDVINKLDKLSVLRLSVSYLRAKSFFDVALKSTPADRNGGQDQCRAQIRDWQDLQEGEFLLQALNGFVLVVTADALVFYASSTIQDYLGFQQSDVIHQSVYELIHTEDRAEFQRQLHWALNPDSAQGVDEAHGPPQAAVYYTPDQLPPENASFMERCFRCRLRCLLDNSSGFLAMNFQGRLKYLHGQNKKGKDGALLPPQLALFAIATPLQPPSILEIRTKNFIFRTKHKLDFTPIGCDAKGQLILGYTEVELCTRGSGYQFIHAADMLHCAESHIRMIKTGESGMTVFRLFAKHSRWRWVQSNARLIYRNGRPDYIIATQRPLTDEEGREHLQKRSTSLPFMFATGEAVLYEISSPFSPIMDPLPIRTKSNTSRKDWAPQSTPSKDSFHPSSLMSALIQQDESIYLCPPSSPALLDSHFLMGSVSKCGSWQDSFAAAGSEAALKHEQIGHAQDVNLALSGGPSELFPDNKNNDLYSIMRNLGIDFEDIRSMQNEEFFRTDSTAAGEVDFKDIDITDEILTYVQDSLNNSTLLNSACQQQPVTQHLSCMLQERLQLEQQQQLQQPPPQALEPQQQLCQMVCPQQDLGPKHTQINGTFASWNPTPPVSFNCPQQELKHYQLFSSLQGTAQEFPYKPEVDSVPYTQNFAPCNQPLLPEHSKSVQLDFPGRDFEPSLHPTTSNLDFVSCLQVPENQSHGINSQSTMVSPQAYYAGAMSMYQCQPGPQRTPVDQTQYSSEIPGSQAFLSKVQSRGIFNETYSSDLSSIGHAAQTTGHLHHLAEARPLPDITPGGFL
Nature of the assay: In vitro assay 3: antagonism in mouse cell line (AHR transactivation, firefly luciferase reporter, kynurenic acid prestimulated). In kind it is cell-based. In short, it runs like this: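 Antagonism read as reduced firefly luciferase signal (SteadyGlo) from a stably transfected AHR/DRE reporter in a mouse line prestimulated with kynurenic acid. Data normalized to controls, the full-inhibition control being cells without kynurenic acid; multiple determinations given as average or median values.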
(In a reporter assay the amount or activity of a reporter protein is the signal.)

Assay [2] addresses T2, AHR (Homo sapiens, UniProt P35869).
T2 construct: U87 MG glioblastoma cells (ATCC #HTB-14) endogenously expressing AHR; endogenous in cells; host or cells: U87 MG glioblastoma cells (ATCC #HTB-14)
T2 sequence (P35869 11-848): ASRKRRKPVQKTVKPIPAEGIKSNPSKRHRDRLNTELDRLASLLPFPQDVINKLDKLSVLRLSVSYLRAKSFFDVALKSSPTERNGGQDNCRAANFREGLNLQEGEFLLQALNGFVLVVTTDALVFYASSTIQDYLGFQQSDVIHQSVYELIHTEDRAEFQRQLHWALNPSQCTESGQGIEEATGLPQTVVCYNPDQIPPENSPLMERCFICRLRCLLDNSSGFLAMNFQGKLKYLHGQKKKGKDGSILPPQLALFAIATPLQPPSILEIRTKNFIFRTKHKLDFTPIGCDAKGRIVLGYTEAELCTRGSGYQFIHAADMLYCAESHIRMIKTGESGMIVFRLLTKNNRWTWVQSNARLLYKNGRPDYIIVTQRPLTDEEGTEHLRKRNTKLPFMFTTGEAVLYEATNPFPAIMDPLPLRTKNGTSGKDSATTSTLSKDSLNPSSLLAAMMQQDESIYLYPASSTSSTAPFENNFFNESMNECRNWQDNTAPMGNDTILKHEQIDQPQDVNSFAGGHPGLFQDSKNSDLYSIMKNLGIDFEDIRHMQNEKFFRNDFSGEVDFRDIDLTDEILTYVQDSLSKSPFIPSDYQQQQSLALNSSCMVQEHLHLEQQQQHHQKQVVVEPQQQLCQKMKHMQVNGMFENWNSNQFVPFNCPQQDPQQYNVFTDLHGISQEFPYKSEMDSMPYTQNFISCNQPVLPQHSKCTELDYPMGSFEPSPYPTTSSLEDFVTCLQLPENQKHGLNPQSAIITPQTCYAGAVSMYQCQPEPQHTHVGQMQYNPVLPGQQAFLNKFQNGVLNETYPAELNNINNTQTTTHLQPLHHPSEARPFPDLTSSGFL
The assay can be described thus: In vitro assay 1: antagonism in human cell line (AHR transactivation, firefly luciferase reporter, kynurenic acid prestimulated). The assay is classed as cell-based. The following applies: AHR Antagonism Human IC50 [M]. In short, it runs like this:
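Antagonism measured as loss of kynurenic acid-driven firefly luciferase from DRE reporter in stably transfected U87 MG cells; constitutive Renilla signal monitors cytotoxicity. Positive/negative control normalization, staurosporine 5 μM with 150 μM kynurenic acid as inhibition control; replicates given as mean or median.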

Where [3] appears, read: mouse Hepa 1c1c7 cells, 200 μM kynurenic acid, 20 hours, read-out: AHR Antagonism Mouse IC50.
The mark [4] stands for this setting: Hepa 1c1c7 cells, 200 μM kynurenic acid, 20 hours, firefly luciferase reporter, read-out: AHR Antagonism Mouse IC50.

The structures appear in SMILES notation. Like-named read-outs stand apart in the source and are kept apart here. A value given as a limit tells only on which side of the number the result lay.

Regarding `N#Cc1cccc2c1nc(N[C@@H]1CCCCNC1=O)n1nc(-c3cnn(C4CC4)c3)nc21` [Example 761, 2-(1-cyclopropyl-1H-pyrazol-4-yl)-5-{[(3R)-2-oxoazepan-3-yl]amino}[1,2,4]triazolo[1,5-c]quinazoline-7-carbonitrile], the concentration for half-maximal inhibition (IC50) on AHR [1] (setting [3]) amounted to 9.93 nM; at AHR [2], 3.11e-09 M.
The like results for `COc1cccc(-c2nc3c4ccccc4nc(N[C@@H](C(N)=O)c4ccccc4)n3n2)c1` [Example 89, (2R)-2-{[2-(3-methoxyphenyl)[1,2,4]triazolo[1,5-c]quinazolin-5-yl]amino}-2-phenylacetamide] were, in that order, 12.8 nM and 1.29e-08 M.
`Cc1c(-c2nc3c4cccc(F)c4nc(N[C@@H]4CNCCNC4=O)n3n2)cnn1C` [Example 969, (6R)-6-{[2-(1,5-dimethyl-1H-pyrazol-4-yl)-7-fluoro[1,2,4]triazolo[1,5-c]quinazolin-5-yl]amino}-1,4-diazepan-5-one]: the results for the half-maximal inhibitory concentration (IC50) at AHR [1] (setting [4]) and on AHR [2] (firefly luciferase reporter) were 298 nM and 6.3e-07 M, respectively.
Turning to `COc1ccc(-c2nc3c4cccc(C5CC5)c4nc(N[C@@H]4CCCCNC4=O)n3n2)cc1` [Example 206, (3R)-3-{[7-cyclopropyl-2-(4-methoxyphenyl)[1,2,4]triazolo[1,5-c]quinazolin-5-yl]amino}azepan-2-one], the IC50 on AHR [1] (setting [3]) was determined as 7.88 nM; against AHR [2], 9.97e-09 M.
As to `N#Cc1ccccc1-c1nc2c3ccccc3nc(N[C@@H]3CCCCNC3=O)n2n1` [Example 619, 2-(5-{[(3R)-2-oxoazepan-3-yl]amino}[1,2,4]triazolo[1,5-c]quinazolin-2-yl)benzonitrile], the values for the half-inhibitory concentration (IC50) on AHR [1] (setting [3]) and on AHR [2] were 2.96 nM and 1.44e-09 M, respectively.
Take `O=C1NCCCC[C@H]1Nc1nc2c(Cl)cccc2c2nc(-c3cccc(F)c3)nn12` [Example 555, (3R)-3-{[7-chloro-2-(3-fluorophenyl)[1,2,4]triazolo[1,5-c]quianzolin-5-yl]amino}azepan-2-one]: the IC50 on AHR [1] (setting [3]) was found to be 6.92 nM; on AHR [2], 1.82e-08 M.
Take `N#Cc1cccc2c1nc(N[C@@H]1CCCCNC1=O)n1nc(-c3cnn(C4CCC4)c3)nc21` [Example 762, 2-(1-cyclobutyl-1H-pyrazol-4-yl)-5-{[(3R)-2-oxoazepan-3-yl]amino}[1,2,4]triazolo[1,5-c]quinazoline-7-carbonitrile]: the IC50 at AHR [1] (read-out: AHR Antagonism Mouse IC50, mouse Hepa 1c1c7 cells, 200 μM kynurenic acid, 20 hours) came to 7.01 nM; on AHR [2] it was 2.44e-09 M.
Consider `CCCNC(=O)[C@H](CC)Nc1nc2c(Br)cccc2c2nc(-c3ccc(Cl)cc3OC(F)(F)F)nn12` [Example 685, (2S)-2-({7-bromo-2-[4-chloro-2-(trifluoromethoxy)phenyl][1,2,4]triazolo[1,5-c]quinazolin-5-yl}amino)-N-propylbutanamide], for which the figures for the IC50 at AHR [1] (setting [3]) and at AHR [2] were 142 nM and over 2e-06 M, respectively.
The like results for `COc1ccc2nc(N[C@@H]3CCCCNC3=O)n3nc(-c4cnn(C)c4)nc3c2c1` [Example 238, (3R)-3-{[9-methoxy-2-(1-methyl-1H-pyrazol-4-yl)[1,2,4]triazolo[1,5-c]quinazolin-5-yl]amino}azepan-2-one] were, in that order, 344 nM and 1.69e-07 M.
Regarding `Cc1ccccc1-c1nc2c3ccccc3nc(NC3CCCNC3=O)n2n1` (stereo not drawn) [Example 44, 3-{[2-(2-methylphenyl)[1,2,4]triazolo[1,5-c]quinazolin-5-yl]amino}piperidin-2-one], the IC50 at AHR [1] (setting [3]) was determined as 16.9 nM; on AHR [2] it was 1.57e-08 M.
In the case of `COc1ccc(-c2nc3c4cccc(Br)c4nc(N[C@H](C)C(=O)N4CCN(C)CC4)n3n2)cc1` [Example 788, (2R)-2-{[7-bromo-2-(4-methoxyphenyl)[1,2,4]triazolo[1,5-c]quinazolin-5-yl]amino}-1-(4-methylpiperazin-1-yl)propan-1-one], the IC50 at AHR [1] (setting [4]) is 2.08 nM; at AHR [2] (firefly luciferase reporter) it was 4.64e-10 M.
In the case of `COc1ccc(-c2nc3c4ccc(C(F)(F)F)cc4nc(N[C@@H]4CNCCNC4=O)n3n2)cc1` [Example 273, (6R)-6-{[2-(4-methoxyphenyl)-8-(trifluoromethyl)[1,2,4]triazolo[1,5-c]quinazolin-5-yl]amino}-1,4-diazepan-5-one], the IC50 on AHR [1] (setting [3]) was 4590 nM; at AHR [2], over 2e-05 M.
The corresponding values for `O=C1NCCCC[C@H]1Nc1nc2ccccc2c2nc(-c3cnn(CCCO)c3)nn12` [Example 598, (3R)-3-({2-[1-(3-hydroxypropyl)-1H-pyrazol-4-yl][1,2,4]triazolo[1,5-c]quinazolin-5-yl}amino)azepan-2-one] are 171 nM and 2.8e-07 M.
For `N#Cc1ccc(-c2nc3c4cccc(Br)c4nc(N[C@@H]4CCCNC4=O)n3n2)cc1` [Example 560, 4-(7-bromo-5-{[(3R)-2-oxopiperidin-3-yl]amino}[1,2,4]triazolo[1,5-c]quinazolin-2-yl)benzonitrile], the concentration for half-maximal inhibition (IC50) on AHR [1] (setting [3]) is 5.57 nM; on AHR [2], 3.8e-09 M.
On to `CCn1cc(-c2nc3c4cccc(Br)c4nc(N[C@@H]4CCCCNC4=O)n3n2)c(C)n1` [Example 825, (3R)-3-{[7-bromo-2-(1-ethyl-3-methyl-1H-pyrazol-4-yl)[1,2,4]triazolo[1,5-c]quinazolin-5-yl]amino}azepan-2-one], for which the IC50 on AHR [1] (setting [4]) came out at 0.475 nM; against AHR [2] (firefly luciferase reporter), 3.72e-10 M.
For the molecule `CC[C@@H](Nc1nc2c(Br)cccc2c2nc(-c3cnn(C)c3)nn12)C(N)=O` [Example 696, (2R)-2-{[7-bromo-2-(1-methyl-1H-pyrazol-4-yl)[1,2,4]triazolo[1,5-c]quinazolin-5-yl]amino}butanamide], the IC50 at AHR [1] (setting [3]) stood at 8.97 nM; against AHR [2] it was 3.23e-09 M.
For `CCn1cc(-c2nc3c4cccc(Cl)c4nc(N[C@@H]4CCCCNC4=O)n3n2)cn1` [Example 818, (3R)-3-{[7-chloro-2-(1-ethyl-1H-pyrazol-4-yl)[1,2,4]triazolo[1,5-c]quinazolin-5-yl]amino}azepan-2-one], the IC50 on AHR [1] (setting [4]) came out at 2.18 nM; against AHR [2] (firefly luciferase reporter), 6.2e-10 M.
Regarding `Cn1cc(-c2nc3c4ccccc4nc(N[C@H]4CCCCNC4=O)n3n2)cn1` [Example 14, (3S)-3-{[2-(1-methyl-1H-pyrazol-4-yl)[1,2,4]triazolo[1,5-c]quinazolin-5-yl]amino}azepan-2-one], the results for the IC50 on AHR [1] (setting [3]) and against AHR [2] were 234 nM and 2.14e-07 M, respectively.
The like results for `O=C1NCCC1Nc1nc2ccccc2c2nc(-c3cccc(F)c3)nn12` (stereo not drawn) [Example 9, 3-{[2-(3-fluorophenyl)[1,2,4]triazolo[1,5-c]quinazolin-5-yl]amino}pyrrolidin-2-one] were, in that order, 68 nM and 2.62e-08 M.
In the case of `Cn1cc(-c2nc3c4cccc(Br)c4nc(N[C@H]4C[S+]([O-])CCNC4=O)n3n2)cn1` (single isomer, unassigned) [Example 849], the values for the IC50 on AHR [1] (setting [4]) and against AHR [2] (firefly luciferase reporter) were 513 nM and 4.87e-07 M, respectively.
Regarding `COc1cccc(-c2nc3c4ccccc4nc(N[C@H]4CCCCNC4=O)n3n2)c1` [Example 76, (3S)-3-{[2-(3-methoxyphenyl)[1,2,4]triazolo[1,5-c]quinazolin-5-yl]amino}azepan-2-one], the results for the IC50 on AHR [1] (setting [3]) and on AHR [2] were 4.57 nM and 4.82e-08 M, respectively.
